Data taken from US20230035479A1, “METHODS AND COMPOSITIONS FOR REDUCING HAIR GREYING” (President and Fellows of Harvard College, priority 2019, published 2023).

Columns and labels:
[1] = test system: melanocyte stem cells (MeSCs); test: RNA-seq of FACS-purified MeSCs; format: in vivo, mouse; settings: 12 hours after RTX injection
Description: Examination of marker gene expression for diverse skin cell types confirmed successful enrichment for MeSCs (FIG. 12D). To uncover major molecular changes, Gene Ontology (GO) enrichment analysis was conducted (FIG. 5B). A list of known genes associated with MeSC proliferation and differentiation was curated (FIG. 5C, FIG. 12E). Moreover, a list of genes previously denoted for cell cycle entry was utilized to assess if cell cycle regulators are altered at the transcriptional level (FIG. 12F). Some of these key changes were also verified by quantitative RT-PCR (qRT-PCR) (FIG. 12G). […]
MeSCs were purified using FACS from control and stressed mice skin samples at telogen based on their expression of CD117 [7], starting from a population that is negative for CD140a, CD45, Sca1, and CD34 [57]. […] Single-end sequencing reads were obtained using Illumina NextSeq 500 platform. Sequencing reads from RNA-seq libraries were trimmed using Trim Galore! […] Reads with alignment quality <Q30 were discarded. Gene expression levels were normalized and differential genes were calculated using DEseq2 package in R [60]. […] Transcripts Per Kilobase Million (TPM) calculated from count tables of Control MeSC samples were used to determine the expression levels of adrenergic receptors and glucocorticoid receptor shown in FIG. 2C.

[2] = test system: melanocyte stem cells (MeSCs); test: MeSC numbers in hair follicles, TRP2 immunofluorescence or membrane GFP tracing
Description: To understand how stress impacts the melanocyte lineage, RTX was injected into mice in anagen, when both MeSCs and differentiated melanocytes were present but located within distinct compartments—MeSCs were near to the bulge while differentiated melanocytes were at the hair bulb (FIG. 1E).
For RTX injection, mice received injections of RTX (30-100 μg/kg) in the flank for 1-3 days as described previously [15, 16, 51-56]. […] Control mice were treated with the vehicle only. RTX injection was done either in full anagen (P31-P36) or in 1st telogen (P21). […] Mice were treated for three days (P28-P30). […] RTX was given at Anagen VI (P31˜P36).
Mouse skin samples were fixed using 4% paraformaldehyde (PFA) for 15 minutes at room temperature, washed 6 times with PBS, and immersed in 30% sucrose overnight at 4° C. Samples were then embedded in OCT (Sakura Finetek). 35˜50 μm sections were fixed in 4% paraformaldehyde (PFA) for 2 minutes and washed with PBS and PBST. Slides were then blocked using blocking buffer (5% donkey serum; 1% BSA, 2% cold water fish gelatin in 0.3% Triton in PBS) for 1 hour at room temperature, followed by staining with primary antibodies overnight at 4° C. and secondary antibody for 4 hours at room temperature.

C=C(C)[C@]12C[C@@H](C)[C@@]34O[C@](Cc5ccccc5)(O[C@@H]1[C@@H]3C=C(COC(=O)Cc1ccc(O)c(OC)c1)C[C@]1(O)C(=O)C(C)=C[C@@H]41)O2 [RTX, resiniferatoxin]
transcriptome changes in MeSCs [1]: upregulate proliferation and differentiation programs | MeSC loss ([2]; RTX injected during telogen): caused MeSC loss | time to complete loss of MeSCs from the bulge in many hair follicles ([2]; RTX injected in anagen): ≤ 5 days | TRP2+ MeSC number ([2]; RTX injected in anagen, entire skin): significantly reduced | GFP positive cells (traced MeSCs) ([2]; Tyr-CreER, Rosa-mT/mG mice, shortly after RTX injection (D1)): transient increase in GFP positive cells
